Measurements: PubChem BioAssay (NCI)
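Interpolation was linear, between the two tested concentrations surrounding the appropriate level; five concentrations were tested over 48 hours in 96-well plates. The concentration for full growth arrest is given as TGI.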

Assays:
Assay in all cases: DTP human tumour cell line panel, 48 h
DMS 114 small cell lung = tested on: DMS 114 small cell lung
KM20L2 colon = tested on: KM20L2 colon
XF 498 CNS = tested on: XF 498 CNS

Measured: TGI

O=C1C(Cl)N(c2cccc(Cl)c2)C1c1c[nH]c2ccccc12 (stereo not drawn)
> 100 µM: all assays above
